Laboratory results reported in patent publication US20260224475A1, “MULTI-COMPONENT INTRAVAGINAL RING” (priority 2023, published 2026).
Where two headings read alike, the source gives them in different places.

Experiments:
HSV-2 G = experiment: HSV-2 plaque reduction assay; type: cell-based; settings: Human alphaherpesvirus 2, single API, 30 min pre-incubation with HSV-2 G in saline, read-out: EC50 (95% confidence interval)
Method: The HSV-2 plaque reduction assay was performed to test the anti-HSV-2 activity of ZA, CS and LA. […] Virus controls containing HSV-2 in saline were incubated under the same conditions. After incubation all dilutions and controls were diluted 1/10 in DMEM and tittered using the plaque assay. FIG. 12 and Table 10 show the results. […] The data represented the average of two independent experiments. In Table 10, the molar ratio of CS:LA:ZA in ZS-CA-LA is 1:20:100.

VEC-100 tissue [1] = tested on: VEC-100 tissue
Method: VEC-100 tissues were incubated with APIs for 24 hr. Tissue viability was analyzed by MTT and LDH assay and TEER measurements were recorded.

VEC-100 tissue [2] = experiment: VEC-100 tissue, repeated exposure (1 hr daily for 5 days; viability, TEER); type: cell-based
Ectocervical explants = tested on: Ectocervical explants
Method: Kruskal-Wallis test with Dunn's multiple comparison) (FIG. 22).
In FIG. 23, ectocervical explants were incubated with the selected concentrations of the APIs for 24 hr in the presence or absence of 5% VF. Explants were fixed, paraffin embedded, sectioned and stained with H&E.
Ectocervical explants were exposed to the APIs 24 hr in the presence or absence of 5% VF. Supernatants were collected and analyzed for pro-inflammatory cytokines.

human sperm [3] = experiment: Sperm motility assay; type: cell-based; settings: for Average Motility Reduction: average of nine 3-API checkerboard combinations containing the named API at this dose; for EC50 / EC90: Homo sapiens, Sperm
Method: Fresh human sperm samples were obtained the day of the experiment. 100 mM stock solutions of each API in saline were prepared in advance. Immediately prior to the experiment, solutions of each API concentration to be tested were prepared via dilution with saline. These include solutions of multiple APIs added together.
The effect of each API on sperm motility and viability was determined using human donors, adding 200 μL of API's diluted in sterile saline to 50 μL of fresh semen. For motility assessments, the incubation mixture was incubated for 5 minutes and then 100 sperm were counted under the microscope by two andrology-trained researchers and classified as either non-motile or motile. If motile, the sperm were further classified according to the nature of their motility—from barely twitching with no forward progression to progressively motile. Each experiment was repeated at least three times on different days using different donors to account for natural variations in sperm properties.
The % motility for each experimental condition was calculated by normalizing the fraction of motile sperm in the experimental groups to the fraction of motile sperm in the saline control treated group, setting 100% to the average fraction of motile sperm from control experiments. For example, the % motility at concentration c would be:
Once % motility data was obtained, the synergy was measured with Compusyn software. See Chou et al., CompuSyn for drug combinations: PC software and user's guide: a computer program for quantitation of synergism and antagonism in drug combinations, and the determination of IC50. ED50 and LD50 values, which is incorporated herein by reference in its entirety. Motility data for individual API concentration as well as all double and triple API solutions was entered into the program and analyzed according to the Chou-Talalay Median Effect Principle.
Next, the synergy between each of the APIs was tested to determine if there were any synergistic effects between compounds which would allow for reduced dosages. Each of the three possible two-compound combinations were tested, followed by the combination of all three APIs. […] Synergy was calculated with Compusyn using the Chou-Talalay Median Effect approach and represented as a CI (Combination Index) value. […] The smaller the CI value for a combination, the greater the degree of synergy.
After the two-API combinations were complete, the full three-way synergy was tested using a 3×3×3 checkerboard style assay to test all 27 permutations of three chosen concentrations for each of the three APIs.
From the resulting data, the estimated effects of each of the individual API were isolated by averaging % reduction in motility and the CI values for each of the API concentrations tested. With this 3×3×3 checkerboard assay, each single concentration was tested against nine permutations of the other two APIs, meaning that each cell in Table 4 represents the average of the nine combinations involving the specified API concentration.
Synergy was calculated utilizing the Chou-Talalay median effect principle and Compusyn software which quantifies synergy as a combination index (CI) for each combination. A CI<1 signifies synergy, a CI>1 signifies antagonism and a CI=1 signifies a purely additive effect.

[4] = rat, in vivo, 10 days
N. gonorrhoeae = experiment: Minimal cidal concentration (MCC); type: cell-based
human sperm [5] = experiment: Sperm-Cervical Mucus Penetration Test (SMPT) in methylcellulose; type: cell-based; settings: Homo sapiens, Sperm
C. trachomatis = experiment: Bactericidal activity against C. trachomatis (inclusion count in HeLa cells); type: cell-based
Method: C. trachomatis was incubated with actives ±2% VF and 20% SF for 2 hours at room temperature. The mixtures were serially diluted 1/10 in SPG solution, applied on HeLa cells in triplicate. Images were acquired using the Cytation-5 instrument and the inclusion count was analyzed using the Gen5 software in the Cytation-5. Control conditions included HeLa cells challenged with C. trachomatis in the absence of the actives. (FIG. 15).

HIV-1BaL = experiment: MAGI assay, anti-HIV-1BaL activity in TZMbl cells; type: cell-based; settings: TZM-bl, read-out: EC50 (95% confidence interval)
Method: MAGI assay was performed to test anti-HIV-1BaL activity. […] Virus controls containing HIV-1BaL in saline were incubated under the same conditions. Following incubation, API-HIV-1BaL mixture was diluted 10-fold and added to TZMbl cells. Following 72-hour incubation, the cells were washed and stained with X-gal and fixed. […] Infected cells were counted using CTL instrument.

G. vaginalis = experiment: Minimal cidal concentration (MCC); type: cell-based; settings: 30 minutes exposure; >3 log decrease in CFU considered cidal
lactobacillus = experiment: Non-cidal concentrations in lactobacillus (MCC 30 min); type: cell-based

## CC(O)C(=O)O (racemic) [LA, lactic acid]
HSV-2 G
  EC50: 0.16 mM
VEC-100 tissue [1]; single active, 24 h single exposure, summary of ectocervix and VEC-100 findings
  concentration up to which exposure alone did not induce toxicity: up to 222 mM
VEC-100 tissue [1]; single treatment
  Non-toxic concentrations in VEC-100 model TEER and LDH 24 h: 222 mM
VEC-100 tissue [2]; 22 mM
  VEC-100 single exposure (MTT, TEER and LDH) day 1-5 24 h No VF: No Tox
VEC-100 tissue [2]; multiple treatments
  Non-toxic concentrations in VEC-100 model TEER and LDH 5 daily exposures: 22 mM
Ectocervical explants; 111 mM
  Ectocervix: single exposure (MTT, Histology, CC) 24 h, 5% VF: No Tox
  Ectocervix: single exposure (MTT, Histology, CC) 24 h, No VF: No Tox
Ectocervical explants; 222 mM
  Ectocervix: single exposure (MTT, Histology, CC) 24 h, 5% VF: No Tox
  Ectocervix: single exposure (MTT, Histology, CC) 24 h, No VF: No Tox
Ectocervical explants; single treatment
  Non-toxic concentrations in ectocervix MTT and histology 24 hr: 222 mM
Human sperm [3]; Dose 1 (CS 2.95, ZA 4.75, LA 10.26 mM)
  Average Motility Reduction: 54.75%
Human sperm [3]; Dose 2 (CS 3.94, ZA 6.34, LA 13.70 mM)
  Average Motility Reduction: 70.74%
Human sperm [3]; Dose 3 (CS 5.90, ZA 9.51, LA 20.54 mM)
  Average Motility Reduction: 91.84%
Human sperm [3]; 5 min, single API (CS/ZA/LA study), saline, 5 min with fresh semen, % motility vs saline control
  EC50: 20.5 mM
Human sperm [3]; 5 min, single API (CS/ZA/LA study), saline, 5 min with fresh semen, % motility vs saline control, read-out: EC90
  EC90: 28.7 mM
Human sperm [3]; Table 16, concentration of the named API in the CS + ZL + LA combination (cf. Table 7), read-out: Anti-Sperm concentrations Total motility (EC90)
  EC90: 21 mM
Human sperm [3]; single API (CS/ZL/LA study)
  EC50: 21 mM
Human sperm [3]; single API (CS/ZL/LA study), read-out: EC90
  EC90: 29 mM
Human sperm [3]; single API, read-out: Reduction of Sperm Motility EC90 [95% CI] (concentration to inhibit total sperm motility)
  EC90: 29 mM
Human sperm [3]; single API
  MIC (concentration to inhibit progressive sperm motility): 20 mM
[4]
  Non-toxic concentrations based on rat vaginal irritation study 10 days exposure: 200 mM
N. gonorrhoeae; 10% AB serum
  MCC 10% AB Serum: 111 mM
N. gonorrhoeae; 30% AB serum
  MCC 30% AB Serum: 111 mM
N. gonorrhoeae; 30 minutes exposure, >3 log decrease in CFU considered cidal
  MCC: 111 mM
N. gonorrhoeae; no serum
  MCC No Serum: 111 mM
Human sperm [5]; 0.5 h, single API, 1% methylcellulose, 30 minutes, read-out: Inhibition of Sperm Mucus Penetration EC90 [95% CI] (Migration of vanguard sperm in methyl cellulose spiked with API)
  EC90: 5 mM
Human sperm [5]; Table 16, concentration of the named API in the CS + ZL + LA combination (cf. Table 7), read-out: Anti-Sperm concentrations Sperm-mucus penetration (EC90)
  EC90: 1.5 mM
C. trachomatis; LA concentrations lower than 80 mM
  anti-C. trachomatis activity (in words): no activity was observed
C. trachomatis; absence or presence of 2% VF and 20% SF, 2 hours at room temperature, LA 80 mM
  inhibition of C. trachomatis infection (in words): significantly inhibited infection
HIV-1BaL
  EC50: 2.5 mM
G. vaginalis
  MCC: 111 mM
lactobacillus
  Non-cidal concentrations in lactobacillus MCC 30 min: 222 mM
